# Data from patent US20130197089A1, “COMPOSITIONS FOR THE TREATMENT OF ACTINIC KERATOSIS” (DOLORGIET GMBH & CO. KG, priority 2012, published 2013).
# What was measured:
# [1] = tested on: actinic keratosis lesions; assay: Preliminary study: 5% ibuprofen gel vs 3% diclofenac gel in patients with actinic keratosis; details: for Development of new lesions during treatment: 90 days of treatment; for Average number of lesions at the start of the study: baseline; for Average number of lesions (total): all areas; for Severity of the lesions (BSI score): during the 90 days of treatment; for Investigator global improvement index (IGII): scale -2 to +4
# Description: The study was performed according to the relevant criteria and was approved by the ethics commission of the dermatological society of Slovakia.
# (§1) The application frequency was twice a day. The success of the treatment was evaluated after 30, 60 and 90 days.
# (§2) When included in the study, the severity of the lesions was evaluated according to the so-called BSI (baseline severity index) score from 0 to 3. Patients having a BSI score of 1 and 2 were exclusively included in the study.
# BSI score (baseline severity index score 1-3) • 0=no actinic keratosis (AK) visible • 1=clearly visible lesion • 2=many small, moderately thick lesions or a few large scaly lesions visible • 3=many thick hypertrophic lesions that are clearly visible and palpable with clear bounds.
# (§3) The main target parameters within the scope of effectiveness were the total number of lesions in the treatment area and the IGII (investigator global improvement index) score from −2 to +4. From round 1, the evaluations were always done in comparison with the preliminary round.
# (§4) IGII (investigator global improvement index) • −2 significant worsening • −1 slight worsening • 0 unchanged • 1 slight improvement • 2 improvement • 3 significant improvement • 4 complete healing
# The IGII was measured between each two rounds.
# [2] = tested on: actinic keratosis lesions; assay: Second study: 10% ibuprofen gel vs 3% diclofenac gel in patients with actinic keratosis; details: for Average number of lesions at the start of the study: baseline; for Average IGII at the end of the treatment time: all areas; for Average IGII at the end of the treatment time / Investigator global improvement index (IGII): scale -2 to +4
# Description: as §1, §2, §3, §4
# The design of the study was the same as that of the first study.
# [3] = cited from earlier work
# [4] = 5% ibuprofen gel or 3% diclofenac gel
# [5] = Face, 90 days, 5% ibuprofen gel or 3% diclofenac gel twice a day
# [6] = Face, 5% ibuprofen gel or 3% diclofenac gel
# [7] = Forehead, 90 days, 5% ibuprofen gel or 3% diclofenac gel twice a day
# [8] = Forehead, 5% ibuprofen gel or 3% diclofenac gel twice a day, 12 patients per group
# [9] = Hands, 90 days, 5% ibuprofen gel or 3% diclofenac gel twice a day
# [10] = Hands, 5% ibuprofen gel or 3% diclofenac gel
# [11] = Scalp, 90 days, 5% ibuprofen gel or 3% diclofenac gel twice a day
# [12] = Scalp, 5% ibuprofen gel or 3% diclofenac gel
# [13] = after 90 days of treatment, 5% ibuprofen gel or 3% diclofenac gel twice a day
# [14] = start of study, 5% ibuprofen gel or 3% diclofenac gel
# [15] = Face, 90 days, 10% ibuprofen gel or 3% diclofenac gel
# [16] = Face, 10% ibuprofen gel or 3% diclofenac gel
# [17] = Forehead, 90 days, 10% ibuprofen gel or 3% diclofenac gel
# [18] = Forehead, 10% ibuprofen gel or 3% diclofenac gel, 6 patients per group
# [19] = Hands, 90 days, 10% ibuprofen gel or 3% diclofenac gel
# [20] = Hands, 10% ibuprofen gel or 3% diclofenac gel
# [21] = 90 days, 10% ibuprofen gel or 3% diclofenac gel
# [22] = beginning of the treatment, 10% ibuprofen gel or 3% diclofenac gel
# [23] = end of the 90 days of treatment, 10% ibuprofen gel or 3% diclofenac gel
# [24] = Forehead, V0 (start of the study)
smiles,measurement,setting,value
"O=C(O)Cc1ccccc1Nc1c(Cl)cccc1Cl [Diclofenac, diclofenac]",Development of new lesions during treatment,[1]; [4],None of the patients developed new lesions
same,Average number of lesions after 90 days of treatment,[1]; [5],5.5
same,Average number of lesions at the start of the study,[1]; [6],7
same,Average number of lesions after 90 days of treatment,[1]; [7],5.3
same,Average number of lesions at the start of the study,[1]; [8],7.1
same,Average number of lesions after 90 days of treatment,[1]; [9],17.1
same,Average number of lesions at the start of the study,[1]; [10],18.1
same,Average number of lesions after 90 days of treatment,[1]; [11],11.5
same,Average number of lesions at the start of the study,[1]; [12],15.8
same,Average number of lesions (total),[1]; [13],39.4
same,Average number of lesions (total),[1]; [14],48
same,Severity of the lesions (BSI score),[1]; [4],remained virtually unchanged
same,Undesirable side effects,"[1]; during the study, topical 5% ibuprofen gel or 3% diclofenac gel twice a day, 90 days",No undesirable side effects
same,Tolerability of the therapy,"[1]; topical 5% ibuprofen gel or 3% diclofenac gel twice a day, 90 days",well tolerated
same,Tolerability,"[2]; 10% ibuprofen gel or 3% diclofenac gel, 90 days topical",very good
same,Average number of lesions after 90 days of treatment,[2]; [15],6.2
same,Average number of lesions at the start of the study,[2]; [16],12.3
same,Average number of lesions after 90 days of treatment,[2]; [17],4.2
same,Average number of lesions at the start of the study,[2]; [18],7.5
same,Average number of lesions after 90 days of treatment,[2]; [19],8.8
same,Average number of lesions at the start of the study,[2]; [20],17
same,Average IGII at the end of the treatment time,[2]; [21],2.29
same,Total number of lesions,[2]; [22],36.8
same,Total number of lesions,[2]; [23],19.2
"CC(C)Cc1ccc(C(C)C(=O)O)cc1 (stereo not drawn) [Ibuprofen, ibuprofen]",Development of new lesions during treatment,[1]; [4],None of the patients developed new lesions
same,Average number of lesions after 90 days of treatment,[1]; [5],4.8
same,Investigator global improvement index (IGII),"[1]; Face, V0 (start of the study)",0
same,Investigator global improvement index (IGII),"[1]; Face, V3 (after 90 days of treatment), 5% ibuprofen gel or 3% diclofenac gel",1.38
same,Average number of lesions at the start of the study,[1]; [6],5.7
same,Average number of lesions after 90 days of treatment,[1]; [7],4
same,Investigator global improvement index (IGII),[1]; [24],0
same,Investigator global improvement index (IGII),"[1]; Forehead, V3 (after 90 days of treatment), 5% ibuprofen gel or 3% diclofenac gel",1.33
same,Average number of lesions at the start of the study,[1]; [8],4.6
same,Investigator global improvement index (IGII),"[1]; Hand, V0 (start of the study)",0
same,Investigator global improvement index (IGII),"[1]; Hand, V3 (after 90 days of treatment), 5% ibuprofen gel or 3% diclofenac gel",1
same,Average number of lesions after 90 days of treatment,[1]; [9],16.9
same,Average number of lesions at the start of the study,[1]; [10],18.5
same,Average number of lesions after 90 days of treatment,[1]; [11],6
same,Investigator global improvement index (IGII),"[1]; Scalp, V0 (start of the study)",0
same,Investigator global improvement index (IGII),"[1]; Scalp, V3 (after 90 days of treatment), 5% ibuprofen gel or 3% diclofenac gel",1
same,Average number of lesions at the start of the study,[1]; [12],6.3
same,Average number of lesions (total),[1]; [13],31.7
same,Average number of lesions (total),[1]; [14],35.1
same,Severity of the lesions (BSI score),[1]; [4],remained virtually unchanged
same,Tolerability of the therapy,"[1]; human, in vivo",well tolerated
same,Undesirable side effects,"[1]; human, in vivo",No undesirable side effects
same,Therapeutic result in treating slight and moderate keratosis lesions (in words),"[2]; 10% ibuprofen gel or 3% diclofenac gel, 90 days",pronounced effectiveness
same,Average number of lesions after 90 days of treatment,[2]; [15],0.7
same,Investigator global improvement index (IGII),"[2]; Face, V0 (start of the study)",0
same,Investigator global improvement index (IGII),"[2]; Face, V3 (after 90 days of treatment), 10% ibuprofen gel or 3% diclofenac gel",3.7
same,Average number of lesions at the start of the study,[2]; [16],5.2
same,Average number of lesions after 90 days of treatment,[2]; [17],0.3
same,Investigator global improvement index (IGII),[2]; [24],0
same,Investigator global improvement index (IGII),"[2]; Forehead, V3 (after 90 days of treatment), 10% ibuprofen gel or 3% diclofenac gel",3.8
same,Average number of lesions at the start of the study,[2]; [18],3.3
same,Investigator global improvement index (IGII),"[2]; Hand, V0 (start of the study)",0
same,Investigator global improvement index (IGII),"[2]; Hand, V3 (after 90 days of treatment), 10% ibuprofen gel or 3% diclofenac gel",3.6
same,Average number of lesions after 90 days of treatment,[2]; [19],2.7
same,Average number of lesions at the start of the study,[2]; [20],9.5
same,Average IGII at the end of the treatment time,[2]; [21],3.7
same,Total number of lesions,[2]; [22],18
same,Total number of lesions,[2]; [23],3.7
same,Patients completely freed from the optically visible lesions,"[2]; end of the 90 days of treatment, 10% ibuprofen gel, six patients in group",three
same,Tolerability,"[2]; human, in vivo",very good
same,Plasma level necessary for a general systemic effect,[3]; systemic effect,≥ 10000 ng/mL
same,Plasma level reached in topical application,[3]; topical application,about 2 μg/ml
